One molecule from ChEMBL document CHEMBL1150172, “Sodium 1-(12-hydroxy)octadecanyl sulfate, an MMP2 inhibitor, isolated from a tunicate of the family Polyclinidae” (J Nat Prod, 2002) can be followed below.

The structures appear in SMILES notation.

The target of this assay is 72 kDa type IV collagenase (Homo sapiens, UniProt P08253). Put plainly: Inhibition of recombinant MMP2.
72 kDa type IV collagenase, sequence (P08253 whole entry): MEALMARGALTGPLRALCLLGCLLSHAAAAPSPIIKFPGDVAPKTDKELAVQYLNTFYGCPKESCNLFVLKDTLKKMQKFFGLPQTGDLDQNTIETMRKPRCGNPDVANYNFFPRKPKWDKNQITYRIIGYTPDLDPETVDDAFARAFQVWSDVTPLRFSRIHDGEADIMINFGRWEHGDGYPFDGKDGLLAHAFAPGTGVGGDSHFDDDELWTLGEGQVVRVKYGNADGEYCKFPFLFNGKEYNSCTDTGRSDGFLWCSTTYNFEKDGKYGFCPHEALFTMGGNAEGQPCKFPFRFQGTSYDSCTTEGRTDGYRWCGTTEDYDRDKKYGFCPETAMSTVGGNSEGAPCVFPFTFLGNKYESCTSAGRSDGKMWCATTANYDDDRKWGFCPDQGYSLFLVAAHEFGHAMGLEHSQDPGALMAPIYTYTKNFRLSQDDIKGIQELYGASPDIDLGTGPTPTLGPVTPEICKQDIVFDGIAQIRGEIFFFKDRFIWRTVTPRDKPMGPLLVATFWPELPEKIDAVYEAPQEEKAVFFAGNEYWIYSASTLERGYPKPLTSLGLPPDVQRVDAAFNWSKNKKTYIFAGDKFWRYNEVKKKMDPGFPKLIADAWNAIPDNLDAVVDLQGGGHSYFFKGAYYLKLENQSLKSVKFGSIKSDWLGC

In the case of `CCCCCCC(O)CCCCCCCCCCCOS(=O)(=O)O` (stereo unspecified), the IC50 is 23.2 µM.
